In patent US9375013B2, “Herbicidal composition” (ISHIHARA SANGYO KAISHA, LTD., priority 2013, dated 2016):

Legend:
Format in all cases: in vivo
[1] = test system: ivy-leaved morningglory (Ipomoea hederacea (L.) Jacq.); assay: Test Example 2: pot soil treatment, growth inhibition of ivy-leaved morningglory; settings: 22nd day after treatment, read-out: Growth inhibition rate (%) of ivy-leaved morningglory, Measured value
From the text: (§1) On the 14th day after treatment, the state of growth of the summergrass was visually observed to determine the growth inhibition rate in accordance with the following evaluation standard. The growth inhibition rate (%) (measured value) and the growth inhibition rate (%) (calculated value) calculated by the Colby's formula are shown in Table 1. Growth inhibition rate (%)=0 (equivalent to the non-treated area) to 100 (complete kill) Upland field soil was put into a 1/160,000 ha pot, and seeds of ivy-leaved morningglory (Ipomoea hederacea (L.) Jacq.) were sown. On the next day, predetermined amounts of flazasulfuron and hexazinone were diluted with water (in an amount corresponding to 300 L/ha), and applied for soil treatment by a small sprayer. On the 22nd day after treatment, the state of growth of the ivy-leaved morningglory was visually observed to determine the growth inhibition rate. The growth inhibition rate (%) (measured value) and the growth inhibition rate (%) calculated in the same manner as in Test Example 1 are shown in Table 2.

[2] = test system: velvetleaf (Abutilon theophrasti MEDIC.); assay: Test Example 14: pot soil treatment, growth inhibition of velvetleaf; settings: dose 30 g/ha, 21st day after treatment, read-out: Growth inhibition rate (%) of velvetleaf, Measured value
From the text: as §1, with “velvetleaf (Abutilon theophrasti MEDIC.)” for “ivy-leaved morningglory (Ipomoea hederacea (L.) Jacq.)”, “21st” for “22nd”, “velvetleaf” for “ivy-leaved morningglory”, “14.” for “2.”

[3] = test system: persian speedwell (Veronica persica Poir.); assay: Test Example 8: pot soil treatment, growth inhibition of persian speedwell; settings: 21st day after treatment, read-out: Growth inhibition rate (%) of persian speedwell, Measured value
[4] = test system: guinea grass (Panicum maximum Jacq.); assay: Test Example 4: pot soil treatment, growth inhibition of guinea grass; settings: Megathyrsus maximus, dose 10 g/ha, 22nd day after treatment, read-out: Growth inhibition rate (%) of guinea grass, Measured value
From the text: as §1, with “guinea grass (Panicum maximum” for “ivy-leaved morningglory (Ipomoea hederacea (L.)”, “mesotrione” for “hexazinone”, “guinea grass” for “ivy-leaved morningglory”, “4.” for “2.”

[5] = test system: field bindweed (Convolvulus arvensis L.); assay: Test Example 5: pot soil treatment, growth inhibition of field bindweed; settings: dose 30 g/ha, 22nd day after treatment, read-out: Growth inhibition rate (%) of field bindweed, Measured value
From the text: as §1, with “field bindweed (Convolvulus arvensis L.)” for “ivy-leaved morningglory (Ipomoea hederacea (L.) Jacq.)”, “field bindweed” for “ivy-leaved morningglory”, “5.” for “2.”

[6] = test system: barnyardgrass (Echinochloa crus-galli L); assay: Test Example 9: pot soil treatment, growth inhibition of barnyardgrass; settings: dose 30 g/ha, 21st day after treatment, read-out: Growth inhibition rate (%) of barnyardgrass, Measured value
From the text: as §1, with “barnyardgrass (Echinochloa crus-galli L)” for “ivy-leaved morningglory (Ipomoea hederacea (L.) Jacq.)”, “21st” for “22nd”, “barnyardgrass” for “ivy-leaved morningglory”, “9.” for “2.”

[7] = test system: field bindweed (Convolvulus arvensis L.); assay: Test Example 15: pot soil treatment, growth inhibition of field bindweed; settings: dose 30 g/ha, 21st day after treatment, read-out: Growth inhibition rate (%) of field bindweed, Measured value
From the text: as §1, with “field bindweed (Convolvulus arvensis L.)” for “ivy-leaved morningglory (Ipomoea hederacea (L.) Jacq.)”, “flazasulfuron, mesotrione” for “flazasulfuron”, “imazapic” for “hexazinone”, “21st” for “22nd”, “field bindweed” for “ivy-leaved morningglory”, “15.” for “2.”

COc1cc(OC)nc(NC(=O)NS(=O)(=O)c2ncccc2C(F)(F)F)n1 [Flazasulfuron, flazasulfuron]
inhibition at 10 g/ha ([1]; dose 10 g/ha): 0%
inhibition at 30 g/ha ([1]; dose 30 g/ha): 0%
inhibition at 50 g/ha ([1]; dose 50 g/ha): 40%
inhibition at 30 g/ha [2]: 20%
inhibition at 50 g/ha [3]: 20%
inhibition at 10 g/ha [4]: 0%
inhibition at 30 g/ha [5]: 0%
inhibition at 30 g/ha [6]: 90%
inhibition at 30 g/ha [7]: 0%
